Measured values: paper PMC11207335, “In Vitro Metabolism and Transport Characteristics of Zastaprazan” (Pharmaceutics, 2024)
Several values for one entry are separate records, joined by “and”; a condition that tells them apart may be missing. Identical values can stand only once. Like-named read-outs stand apart in the source and are kept apart here.

Assays:
gastric pH = conditions: cited from earlier work; for % time pH > 4.0 over a period of 24 h: 40 mg dose group, healthy subjects
α2B = α2B (Homo sapiens, UniProt P18089); assay: BioPrint profiling, α2B; conditions: BioPrint profiling (Eurofins CEREP)
Cl^- channel = assay: BioPrint profiling, Cl- channel; conditions: BioPrint profiling (Eurofins CEREP)
A3 = A3 (Homo sapiens, UniProt P0DMS8); assay: BioPrint profiling, A3; conditions: BioPrint profiling (Eurofins CEREP)
Text: However, the involvement of multiple metabolizing enzymes such as CYP1A2, CYP2C9/19, CYP1A2, and CYP2D6 with a minor contribution in the formation of M1, M6, M19, and M21 and the involvement of UGT1A1 and UGT2B7 in the formation of M15 from M1 and the formation of 23 metabolites might reduce the risk of drug–drug interaction potential mediated by a single metabolizing enzyme and a main metabolite. Additionally, it may reduce the intersubject variability caused by genetic variations in these metabolizing enzymes.

[1] = Metabolic stability of JP-1366 in mouse hepatocytes; assay type: in vitro ADME; conditions: cryopreserved mouse hepatocytes
Protocol: (§1) According to the manufacturer’s protocol, cryopreserved human, dog, monkey, mouse, and rat hepatocytes were purified and recovered. […] The metabolic reaction in each sample well was quenched by adding 120 μL of ice-cold acetonitrile.
(§2) Log-transformed relative responses of JP-1366 were plotted against incubation time, thereby obtaining the elimination slope (k) from the linear regression analysis. […] (1) t1 /2(min)=ln2/kelimination slope (2) Clint(mL/min/kg)=ln2/t1/2×mL incubation/hepatocyte (10^6 cells)×B×10^6 cells/g liver×A g liver/kg BW (3) Clhep(mL/min/kg)=Qh×Clint/Qh+Clint (4) HER=Clhep/Qh
(§3) Here, A means the liver weight parameters and has values of 25.7, 32, 30, 87.5, and 40; B means the cell number parameters and has values of 139, 215, 120, 135, and 117; Qh represents hepatic blood flow and has values of 20.7, 30.9, 43.6, 90, and 55.2 mL/min/kg for humans, dogs, monkeys, mice, and rats, respectively. Hepatic extraction ratios (HERs) of ≤0.25, 0.25–0.75, and ≥0.75 were regarded as low, moderate, and high, respectively.

mouse hepatocytes = assay: as above; assay type: in vitro ADME; conditions: mouse hepatocytes
Protocol: as §1, §2, §3

[2] = cited from earlier work
[3] = tested on: human, dog, monkey, mouse, and rat hepatocytes; assay: In vitro metabolic profiling of JP-1366 in hepatocytes; assay type: in vitro ADME; conditions: 10 µM JP-1366, 60 min; H human, D dog, Mk monkey, M mouse, R rat
Protocol: Cryopreserved human, dog, monkey, mouse, and rat hepatocytes were purified and recovered according to the manufacturer’s protocol. […] The metabolic reaction in each sample well was quenched by adding 120 μL of ice-cold acetonitrile.
MS spectra were obtained in positive-ion mode using electrospray ionization under optimized conditions as follows: capillary temperature, 350 °C; sheath gas flow rate, 40 (arbitrary units); aux gas flow rate, 10 (arbitrary units); and aux gas heater temperature, 350 °C. Full MS scan with data-dependent MS/MS was performed from m/z 100 to m/z 1000.

[4] = molecular target: T1, human cDNA-expressed CYP2C19 (Homo sapiens, UniProt P33261); assay: Enzyme kinetics of JP-1366 metabolism in cDNA-expressed CYP2C19; assay type: in vitro ADME
T1 construct: purchased Corning Life Sciences
Protocol: (§4) The reaction was initiated by adding 5 μL of NADPH-generating system in triplicate, and the mixture was further incubated for 30 min at 37 °C in a shaking water bath.
(§5) The concentrations of the metabolites were quantitated, and their formation rates (pmol/mg protein/min) were calculated by dividing the amounts of metabolites formed from the incubation with human liver microsomes and human cDNA-expressed CYP or UGT enzymes by the incubation time.

[5] = molecular target: T2, human cDNA-expressed CYP2C9 (Homo sapiens, UniProt P11712); assay: Enzyme kinetics of JP-1366 metabolism in cDNA-expressed CYP2C9; assay type: in vitro ADME
T2 construct: purchased Corning Life Sciences
Protocol: as §4, §5

[6] = molecular target: T3, human cDNA-expressed CYP3A5 (Homo sapiens, UniProt P20815); assay: Enzyme kinetics of JP-1366 metabolism in cDNA-expressed CYP3A5; assay type: in vitro ADME
T3 construct: purchased Corning Life Sciences
Protocol: as §4, §5

[7] = molecular target: T4, human cDNA-expressed CYP2C8 (Homo sapiens, UniProt P10632); assay: Enzyme kinetics of JP-1366 metabolism in cDNA-expressed CYP2C8; assay type: in vitro ADME
T4 construct: purchased Corning Life Sciences
T4 sequence (P10632 1-490): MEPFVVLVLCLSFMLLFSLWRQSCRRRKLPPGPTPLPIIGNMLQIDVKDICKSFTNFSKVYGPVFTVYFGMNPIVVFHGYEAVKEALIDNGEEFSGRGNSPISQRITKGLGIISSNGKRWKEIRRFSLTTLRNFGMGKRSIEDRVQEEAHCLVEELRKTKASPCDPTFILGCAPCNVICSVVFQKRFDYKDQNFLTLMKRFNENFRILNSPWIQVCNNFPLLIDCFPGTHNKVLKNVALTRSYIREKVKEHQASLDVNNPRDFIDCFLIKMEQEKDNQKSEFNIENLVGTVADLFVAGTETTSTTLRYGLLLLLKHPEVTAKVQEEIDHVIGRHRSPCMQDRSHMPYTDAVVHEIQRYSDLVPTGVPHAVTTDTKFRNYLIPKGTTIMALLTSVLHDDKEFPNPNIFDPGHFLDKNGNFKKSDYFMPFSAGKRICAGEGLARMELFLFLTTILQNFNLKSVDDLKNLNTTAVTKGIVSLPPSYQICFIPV
Protocol: as §4, §5

[8] = formation of the labelled metabolite from JP-1366, CYP2C19
[9] = formation of the labelled metabolite from JP-1366, CYP2C9
[10] = formation of the labelled metabolite from JP-1366, CYP3A5

T2 sequence (P11712 whole entry): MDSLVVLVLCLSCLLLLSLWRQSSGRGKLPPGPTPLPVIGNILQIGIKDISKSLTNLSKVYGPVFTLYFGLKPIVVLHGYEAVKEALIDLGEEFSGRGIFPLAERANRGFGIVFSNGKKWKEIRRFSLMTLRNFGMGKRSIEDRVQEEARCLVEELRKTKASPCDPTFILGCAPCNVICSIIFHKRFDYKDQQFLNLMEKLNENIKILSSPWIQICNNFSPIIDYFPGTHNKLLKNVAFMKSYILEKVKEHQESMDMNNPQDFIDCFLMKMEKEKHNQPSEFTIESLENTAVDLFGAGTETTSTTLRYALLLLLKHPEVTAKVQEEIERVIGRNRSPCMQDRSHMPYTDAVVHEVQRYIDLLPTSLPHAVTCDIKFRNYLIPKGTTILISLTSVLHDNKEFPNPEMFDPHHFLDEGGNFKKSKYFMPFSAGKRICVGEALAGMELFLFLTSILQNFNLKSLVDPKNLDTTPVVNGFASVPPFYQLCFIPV
T3 sequence (P20815 whole entry): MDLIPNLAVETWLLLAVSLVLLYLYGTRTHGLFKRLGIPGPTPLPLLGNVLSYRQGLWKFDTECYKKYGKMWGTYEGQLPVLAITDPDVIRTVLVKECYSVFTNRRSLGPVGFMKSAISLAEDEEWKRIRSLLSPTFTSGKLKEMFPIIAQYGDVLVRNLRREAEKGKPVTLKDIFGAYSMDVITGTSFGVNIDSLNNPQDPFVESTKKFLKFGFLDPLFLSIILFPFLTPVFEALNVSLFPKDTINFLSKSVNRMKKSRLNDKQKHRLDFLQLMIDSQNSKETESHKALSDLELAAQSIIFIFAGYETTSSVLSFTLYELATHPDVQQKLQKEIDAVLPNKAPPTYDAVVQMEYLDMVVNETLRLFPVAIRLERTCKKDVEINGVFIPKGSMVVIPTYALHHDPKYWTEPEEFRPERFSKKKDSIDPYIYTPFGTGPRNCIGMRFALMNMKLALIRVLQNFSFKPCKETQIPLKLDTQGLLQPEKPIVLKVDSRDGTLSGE
T1 sequence (P33261 whole entry): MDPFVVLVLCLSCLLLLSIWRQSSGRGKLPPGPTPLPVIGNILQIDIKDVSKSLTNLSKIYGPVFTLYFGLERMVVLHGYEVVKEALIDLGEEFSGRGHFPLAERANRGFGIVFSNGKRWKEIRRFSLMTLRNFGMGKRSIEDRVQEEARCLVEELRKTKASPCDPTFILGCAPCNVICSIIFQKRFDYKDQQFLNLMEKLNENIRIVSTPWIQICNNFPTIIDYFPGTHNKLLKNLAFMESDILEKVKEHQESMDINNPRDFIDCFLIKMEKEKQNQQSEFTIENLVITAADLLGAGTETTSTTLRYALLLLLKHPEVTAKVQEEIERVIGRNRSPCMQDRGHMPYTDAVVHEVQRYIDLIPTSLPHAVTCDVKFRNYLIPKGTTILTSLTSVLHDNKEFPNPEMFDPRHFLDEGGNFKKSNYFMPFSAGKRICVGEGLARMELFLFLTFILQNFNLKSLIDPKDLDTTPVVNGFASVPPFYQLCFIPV
α2B, sequence (P18089 whole entry): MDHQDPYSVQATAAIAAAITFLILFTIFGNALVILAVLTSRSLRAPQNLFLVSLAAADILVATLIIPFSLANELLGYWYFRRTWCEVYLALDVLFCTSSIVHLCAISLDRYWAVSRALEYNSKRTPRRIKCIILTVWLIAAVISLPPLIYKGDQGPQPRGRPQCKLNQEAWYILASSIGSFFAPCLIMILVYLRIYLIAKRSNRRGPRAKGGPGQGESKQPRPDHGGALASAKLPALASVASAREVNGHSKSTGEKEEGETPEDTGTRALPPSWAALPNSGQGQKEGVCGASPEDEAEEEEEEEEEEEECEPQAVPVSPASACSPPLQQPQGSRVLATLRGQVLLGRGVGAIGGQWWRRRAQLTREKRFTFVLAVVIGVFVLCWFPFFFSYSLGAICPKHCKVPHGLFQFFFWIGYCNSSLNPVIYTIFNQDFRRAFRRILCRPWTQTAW
A3, sequence (P0DMS8 whole entry): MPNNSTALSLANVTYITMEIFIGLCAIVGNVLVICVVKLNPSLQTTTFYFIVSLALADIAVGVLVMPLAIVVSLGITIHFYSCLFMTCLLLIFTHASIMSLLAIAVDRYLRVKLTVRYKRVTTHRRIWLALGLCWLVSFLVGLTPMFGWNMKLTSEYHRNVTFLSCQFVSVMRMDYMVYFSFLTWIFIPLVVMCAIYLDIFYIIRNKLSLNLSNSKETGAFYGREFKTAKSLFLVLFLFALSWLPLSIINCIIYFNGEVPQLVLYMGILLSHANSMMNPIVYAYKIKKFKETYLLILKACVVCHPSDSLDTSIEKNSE

Question: Which “% time pH > 4.0 over a period of 24 h” value (gastric pH; MAD) does the source give for `Cc1cccc(C)c1CNc1cc(C(=O)N2CCC2)cn2c(C)c(C)nc12` [JP-1366, 1-azetidinyl(8-(((2,6-dimethylphenyl)methyl)amino)-2,3-dimethylimidazo(1,2-a)pyridin-6-yl)methanone] here?
Answer: 89.28 ± 9.12% and 89.28% ± 9.12%

Question: What about the “% time pH > 4.0 over a period of 24 h” value (gastric pH; SAD) of the same compound?
Answer: 91.84% ± 4.06%

Question: What about the “% time pH > 4 at nighttime” value (gastric pH; repeated 40 mg dose) of the same compound?
Answer: 89.28% ± 9.12%

Question: What about the IC50 (α2B) of the same compound?
Answer: 1200 nM

Question: And the IC50 (Cl^- channel)?
Answer: 910 nM

Question: And the IC50 (A3)?
Answer: 2700 nM

Question: And the CLint scaled at 1 µM ([1]; mouse hepatocytes, scaled with physiological parameters)?
Answer: 461 mL/min/kg

Question: And the half-life at 1 µM ([1]; mouse)?
Answer: 59.2 min

Question: What about the CLhep (mouse hepatocytes) of the same compound?
Answer: 75.3 mL/min/kg

Question: What about the HER (mouse hepatocytes) of the same compound?
Answer: 0.84

Question: What about the safety and tolerability ([2]; SAD up to 60 mg, MAD up to 40 mg, healthy male Korean subjects) of the same compound?
Answer: safe and well tolerated

Question: And the “dose-normalized AUC among genetic variants of CYP2C19, CYP3A5, CYP2D6, UGT1A1, and UGT2B17” value [2]?
Answer: not significantly different

Question: For `Cc1cccc(CO)c1CNc1cc(C(=O)N2CCC2)cn2c(C)c(C)nc12` [M1, azetidin-1-yl(8-((2-(hydroxymethyl)-6-methyl-benzyl)amino)-2,3-dimethylimidazo[1,2-a]pyridin-6-yl)methanone], which “Hepatocytes (species in which the metabolite was found)” value [3] is on record?
Answer: H, D, Mk, M, R

Question: And the CLint [4, 8]?
Answer: 0.068 μL/min/pmol CYP

Question: And the “n (Hill coefficient)” value [4, 8]?
Answer: 1.6

Question: And the “Contribution (%)” value ([4]; relative contribution of CYP2C19 to formation of the labelled metabolite)?
Answer: 0.1%

Question: What about the CLint [5, 9] of the same compound?
Answer: 0.14 μL/min/pmol CYP

Question: And the “n (Hill coefficient)” value [5, 9]?
Answer: 1.2

Question: And the “Contribution (%)” value ([5]; relative contribution of CYP2C9 to formation of the labelled metabolite)?
Answer: 10.3%

Question: And the CLint [6, 10]?
Answer: 0.33 μL/min/pmol CYP

Question: And the “n (Hill coefficient)” value [6, 10]?
Answer: 1.5

Question: And the “Contribution (%)” value ([6]; relative contribution of CYP3A5 to formation of the labelled metabolite)?
Answer: 68.6%

Question: And the CLint ([7]; formation of the labelled metabolite from JP-1366, CYP2C8)?
Answer: 0.031 μL/min/pmol CYP

Question: And the “Contribution (%)” value ([7]; relative contribution of CYP2C8 to formation of the labelled metabolite)?
Answer: 3.7%

Question: And the Ki ([7]; substrate inhibition kinetics, formation of the labelled metabolite, CYP2C8)?
Answer: 197000 nM
